The text below walks through data of US11446287B2, “Compounds and methods for EP300 or CBP modulation and indications therefor” (Opna Immuno-Oncology SA, priority 2019, dated 2022).

pIC50: −log10 of the molar value.

The target in this assay is T1, Recombinant human CBP containing the bromodomain (CBP-BD (1043-1159)) (Homo sapiens, UniProt Q92793).
T1 construct: Recombinant human CBP bromodomain (CBP-BD (1043-1159)); made in house; host or cells: E. coli BL21-CodonPlus (DE3), modified pET vector
The experiment in a line: CBP Alphascreen binding assay. The conditions noted are these: read-out: CREBBP (CBP) IC50. The method, boiled down:
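Buffer: 50 mM HEPES pH 7.5, 50 mM NaCl, 0.01% BSA, 0.01% Triton X-100, 2 mM DTT. The signal was normalised to plate controls and fitted with a four-parameter curve to give IC50.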

T1 sequence (Q92793 1081-1197): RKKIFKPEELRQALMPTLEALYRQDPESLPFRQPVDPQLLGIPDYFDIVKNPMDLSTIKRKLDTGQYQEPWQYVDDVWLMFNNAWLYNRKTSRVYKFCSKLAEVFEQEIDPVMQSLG

For the compound `CCOc1cc(C(=O)O)cc(OCC)c1-n1cc(-c2cccc(Cl)c2)c2ncc(-c3c(C)noc3C)cc21` [P-0185, 4-(3-(3-chlorophenyl)-6-(3,5-dimethylisoxazol-4-yl)-1H-pyrrolo[3,2-b]pyridin-1-yl)-3,5-diethoxybenzoic acid], the pIC50 – broadly, the IC50 on a negative log10 scale, so that one unit is a factor of ten – was 6.00 to 10.00.

For `CCOc1cc(C(=O)O)cc(OCC)c1-n1cc(-c2ccc(F)cc2F)c2ncc(-c3c(C)noc3C)cc21` [P-0186, 4-(3-(2,4-difluorophenyl)-6-(3,5-dimethylisoxazol-4-yl)-1H-pyrrolo[3,2-b]pyridin-1-yl)-3,5-diethoxybenzoic acid], the pIC50 is 6.00 to 10.00.

With `CCOc1cc(C(=O)O)cc(OCC)c1-n1cc(Cc2ccccn2)c2ncc(-c3c(C)noc3C)cc21` [P-0187, 4-(6-(3,5-dimethylisoxazol-4-yl)-3-(pyridin-2-ylmethyl)-1H-pyrrolo[3,2-b]pyridin-1-yl)-3,5-diethoxybenzoic acid], the pIC50 was 6.00 to 10.00.

As to `Cc1noc(C)c1-c1cnc2c(c1)c(-c1ccc(C(=O)O)cc1OC(F)(F)F)cn2-c1ccccc1` [P-0188, 4-(5-(3,5-dimethylisoxazol-4-yl)-1-phenyl-1H-pyrrolo[2,3-b]pyridin-3-yl)-3-(trifluoromethoxy)benzoic acid], the pIC50 was 6.00 to 10.00.

As for `Cc1ccncc1-n1cc(-c2ccc(C(=O)O)cc2OC(F)(F)F)c2cc(-c3c(C)noc3C)cnc21` [P-0189, 4-(5-(3,5-dimethylisoxazol-4-yl)-1-(4-methylpyridin-3-yl)-1H-pyrrolo[2,3-b]pyridin-3-yl)-3-(trifluoromethoxy)benzoic acid], the pIC50 is 6.00 to 10.00.

On to `CCOc1cc(C(=O)O)cc(OCC)c1-n1cc(CC2CCC2)c2ncc(-c3c(C)nnn3C)cc21` [P-0190, 4-(3-(cyclobutylmethyl)-6-(1,4-dimethyl-1H-1,2,3-triazol-5-yl)-1H-pyrrolo[3,2-b]pyridin-1-yl)-3,5-diethoxybenzoic acid], for which the pIC50 was 6.00 to 10.00.

In the case of `Cc1noc(C)c1-c1cnc2c(c1)c(-c1ccc(C(=O)O)cc1OC(F)(F)F)cn2CCN1CCOCC1` [P-0191, 4-(5-(3,5-dimethylisoxazol-4-yl)-1-(2-morpholinoethyl)-1H-pyrrolo[2,3-b]pyridin-3-yl)-3-(trifluoromethoxy)benzoic acid], the pIC50 is 6.00 to 10.00.

For the compound `CCOc1cc(C(=O)O)cc(OCC)c1-n1cc(-c2ccc(C3CC3)nc2)c2ncc(-c3c(C)noc3C)cc21` [P-0192, 4-(3-(6-cyclopropylpyridin-3-yl)-6-(3,5-dimethylisoxazol-4-yl)-1H-pyrrolo[3,2-b]pyridin-1-yl)-3,5-diethoxybenzoic acid], the pIC50 is 6.00 to 10.00.

As for `CCOc1cc(C(=O)O)cc(OCC)c1-n1cc(-c2cncc(Cl)c2)c2ncc(-c3c(C)noc3C)cc21` [P-0193, 4-(3-(5-chloropyridin-3-yl)-6-(3,5-dimethylisoxazol-4-yl)-1H-pyrrolo[3,2-b]pyridin-1-yl)-3,5-diethoxybenzoic acid], the pIC50 was 6.00 to 10.00.

Take `CCOc1cc(C(=O)O)cc(OCC)c1-n1cc(-c2ccc(OC)cc2F)c2ncc(-c3c(C)noc3C)cc21` [P-0194, 4-(6-(3,5-dimethylisoxazol-4-yl)-3-(2-fluoro-4-methoxyphenyl)-1H-pyrrolo[3,2-b]pyridin-1-yl)-3,5-diethoxybenzoic acid]: the pIC50 is 6.00 to 10.00.

For the compound `CCOc1cc(C(=O)O)cc(OCC)c1-n1cc(-c2cnn(C)c2)c2ncc(-c3c(C)noc3C)cc21` [P-0195, 4-(6-(3,5-dimethylisoxazol-4-yl)-3-(1-methyl-1H-pyrazol-4-yl)-1H-pyrrolo[3,2-b]pyridin-1-yl)-3,5-diethoxybenzoic acid], the pIC50 is 6.00 to 10.00.

For the compound `Cc1noc(C)c1-c1cnc2c(-c3ccccc3)cn(-c3ccc(C(=O)O)cc3OC(F)(F)F)c2c1` [P-0196, 4-(6-(3,5-dimethylisoxazol-4-yl)-3-phenyl-1H-pyrrolo[3,2-b]pyridin-1-yl)-3-(trifluoromethoxy)benzoic acid], the pIC50 is 6.00 to 10.00.

Turning to `Cc1noc(C)c1-c1cnc2c(c1)c(-c1c(Cl)cc(C(=O)O)cc1Cl)cn2[C@@H](C)c1ccccn1` [P-0197, (S)-3,5-dichloro-4-(5-(3,5-dimethylisoxazol-4-yl)-1-(1-(pyridin-2-yl)ethyl)-1H-pyrrolo[2,3-b]pyridin-3-yl)benzoic acid], the pIC50 was 6.00 to 10.00.

Regarding `Cc1noc(C)c1-c1cnc2c(c1)c(-c1c(Cl)cc(C(=O)O)cc1OC(F)(F)F)cn2C(C1CC1)C1CC1` [P-0198, 3-chloro-4-(1-(dicyclopropylmethyl)-5-(3,5-dimethylisoxazol-4-yl)-1H-pyrrolo[2,3-b]pyridin-3-yl)-5-(trifluoromethoxy)benzoic acid], the pIC50 is 6.00 to 10.00.

For the compound `Cc1noc(C)c1-c1cnc2c(c1)c(-c1ccc(C(=O)O)cc1OC(F)(F)F)cn2C(CC#N)C1CC1` (stereo not drawn) [P-0199, 4-(1-(2-cyano-1-cyclopropylethyl)-5-(3,5-dimethylisoxazol-4-yl)-1H-pyrrolo[2,3-b]pyridin-3-yl)-3-(trifluoromethoxy)benzoic acid], the pIC50 is 6.00 to 10.00.

`Cc1noc(C)c1-c1cnc2c(c1)c(-c1ccc(C(=O)O)cc1OC(F)(F)F)cn2C(CC#N)C1CCCC1` (stereo not drawn) [P-0200, 4-(1-(2-cyano-1-cyclopentylethyl)-5-(3,5-dimethylisoxazol-4-yl)-1H-pyrrolo[2,3-b]pyridin-3-yl)-3-(trifluoromethoxy)benzoic acid]: the pIC50 was 6.00 to 10.00.

On to `CCOc1cc(C(=O)O)cc(OCC)c1-n1cc(-c2cnc(OC)nc2)c2ncc(-c3c(C)noc3C)cc21` [P-0201, 4-(6-(3,5-dimethylisoxazol-4-yl)-3-(2-methoxypyrimidin-5-yl)-1H-pyrrolo[3,2-b]pyridin-1-yl)-3,5-diethoxybenzoic acid], for which the pIC50 is 6.00 to 10.00.

Take `Cc1noc(C)c1-c1cnc2c(c1)c(-c1ccc(C(=O)O)cc1OC(F)(F)F)cn2S(=O)(=O)C1CC1` [P-0202, 4-(1-(cyclopropylsulfonyl)-5-(3,5-dimethylisoxazol-4-yl)-1H-pyrrolo[2,3-b]pyridin-3-yl)-3-(trifluoromethoxy)benzoic acid]: the pIC50 is 6.00 to 10.00.

On to `Cc1noc(C)c1-c1cnc2c(c1)c(-c1ccc(C(=O)O)cc1OC(F)(F)F)cn2-c1ccnc(C(C)C)c1` [P-0203, 4-(5-(3,5-dimethylisoxazol-4-yl)-1-(2-isopropylpyridin-4-yl)-1H-pyrrolo[2,3-b]pyridin-3-yl)-3-(trifluoromethoxy)benzoic acid], for which the pIC50 is 6.00 to 10.00.

Consider `Cc1noc(C)c1-c1cnc2c(c1)c(-c1ccc(C(=O)O)cc1OC(F)(F)F)cn2-c1cnccc1C#N` [P-0204, 4-(1-(4-cyanopyridin-3-yl)-5-(3,5-dimethylisoxazol-4-yl)-1H-pyrrolo[2,3-b]pyridin-3-yl)-3-(trifluoromethoxy)benzoic acid], for which the pIC50 was 6.00 to 10.00.

Turning to `CCOc1cc(C(=O)O)cc(F)c1-n1cc(-c2ccccc2)c2ncc(-c3c(C)noc3C)cc21` [P-0205, 4-(6-(3,5-dimethylisoxazol-4-yl)-3-phenyl-1H-pyrrolo[3,2-b]pyridin-1-yl)-3-ethoxy-5-fluorobenzoic acid], the pIC50 is 6.00 to 10.00.

Turning to `CCOc1cccc(C#N)c1-n1cc(-c2ccccc2)c2ncc(-c3c(C)noc3C)cc21` [P-0206, 2-(6-(3,5-dimethylisoxazol-4-yl)-3-phenyl-1H-pyrrolo[3,2-b]pyridin-1-yl)-3-ethoxybenzonitrile], the pIC50 is 6.00 to 10.00.

With `Cc1noc(C)c1-c1cnc2c(-c3ccccc3)cn(-c3c(Cl)cccc3C#N)c2c1` [P-0207, 3-chloro-2-(6-(3,5-dimethylisoxazol-4-yl)-3-phenyl-1H-pyrrolo[3,2-b]pyridin-1-yl)benzonitrile], the pIC50 was 5.10 to 6.00.

Consider `CCOc1cc(C(=O)O)cc(OCC)c1-n1cc(C2=CCC(F)(F)CC2)c2ncc(-c3c(C)noc3C)cc21` [P-0208, 4-(3-(4,4-difluorocyclohex-1-en-1-yl)-6-(3,5-dimethylisoxazol-4-yl)-1H-pyrrolo[3,2-b]pyridin-1-yl)-3,5-diethoxybenzoic acid], for which the pIC50 was 6.00 to 10.00.

In the case of `CCOc1cc(C(=O)O)cc(OCC)c1-n1cc(-c2ccc(F)c(Cl)c2)c2ncc(-c3c(C)noc3C)cc21` [P-0209, 4-(3-(3-chloro-4-fluorophenyl)-6-(3,5-dimethylisoxazol-4-yl)-1H-pyrrolo[3,2-b]pyridin-1-yl)-3,5-diethoxybenzoic acid], the pIC50 is 6.00 to 10.00.

As for `CCOc1cc(C(=O)O)cc(OCC)c1-n1cc(CC2CCC2)c2ncc(-c3c(COC)noc3C)cc21` [P-0210, 4-(3-(cyclobutylmethyl)-6-(3-(methoxymethyl)-5-methylisoxazol-4-yl)-1H-pyrrolo[3,2-b]pyridin-1-yl)-3,5-diethoxybenzoic acid], the pIC50 was 6.00 to 10.00.

Consider `Cc1cnccc1-n1cc(-c2ccc(C(=O)O)cc2OC(F)(F)F)c2cc(-c3c(C)noc3C)cnc21` [P-0211, 4-(5-(3,5-dimethylisoxazol-4-yl)-1-(3-methylpyridin-4-yl)-1H-pyrrolo[2,3-b]pyridin-3-yl)-3-(trifluoromethoxy)benzoic acid], for which the pIC50 is 6.00 to 10.00.

Take `Cc1noc(C)c1-c1cnc2c(c1)c(-c1ccc(C(=O)O)cc1OC(F)(F)F)cn2C1CCS(=O)(=O)CC1` [P-0212, 4-(5-(3,5-dimethylisoxazol-4-yl)-1-(1,1-dioxidotetrahydro-2H-thiopyran-4-yl)-1H-pyrrolo[2,3-b]pyridin-3-yl)-3-(trifluoromethoxy)benzoic acid]: the pIC50 is 6.00 to 10.00.

With `Cc1noc(C)c1-c1cnc2c(c1)c(-c1ccc(C(=O)O)cc1OC(C)C)cn2C(C1CC1)C1CC1` [P-0213, 4-(1-(dicyclopropylmethyl)-5-(3,5-dimethylisoxazol-4-yl)-1H-pyrrolo[2,3-b]pyridin-3-yl)-3-isopropoxybenzoic acid], the pIC50 was 6.00 to 10.00.

Turning to `Cc1noc(C)c1-c1cnc2c(c1)c(-c1ccc(C(=O)O)cc1OCC(F)(F)F)cn2C(C1CC1)C1CC1` [P-0214, 4-(1-(dicyclopropylmethyl)-5-(3,5-dimethylisoxazol-4-yl)-1H-pyrrolo[2,3-b]pyridin-3-yl)-3-(2,2,2-trifluoroethoxy)benzoic acid], the pIC50 is 6.00 to 10.00.
